From patent US4444754A, “Derivatives of clavulanic acid, a process for their preparation and their use” (Beecham Group Limited, priority 1978, dated 1984) come the findings set out here.

Series [1] deals with Strep. faecalis I. Description: MIC in DST agar containing 5% blood. The series is classed as cell-based. The following applies: Enterococcus faecalis. From the text: (§1) The following MIC values (μg/ml) for the compound of Example 2 were obtained in DST agar containing 5% blood: […]
The test system of series [2] is Prot. mirabilis C977. Description: MIC in DST agar containing 5% blood. The format is cell-based. The following applies: Proteus mirabilis.
Description: as §1

The subject of series [3] is Strep. pneumoniae. Description: MIC in DST agar containing 5% blood. The format is cell-based. The following applies: Streptococcus pneumoniae.
Description: as §1

Series [4] has as its system E. coli JT39 (R+). The series is described as follows: MIC in DST agar containing 5% blood. The format is cell-based. The following applies: Escherichia coli.
Description: as §1

For series [5], the system named is Kleb. aerogenes A. The series is described as follows: MIC in DST agar containing 5% blood. The series is classed as cell-based. The following applies: Klebsiella aerogenes.
Description: as §1

The subject of series [6] is Staph. aureus 1517. The series is described as follows: MIC in DST agar containing 5% blood. The format is cell-based. The following applies: Staphylococcus aureus.
Description: as §1

Series [7] has as its system Staph. aureus Oxford. Description: MIC in DST agar containing 5% blood. The series is classed as cell-based. The following applies: Staphylococcus aureus.
Description: as §1

For series [8], the system named is E. coli ESS. The series is described as follows: MIC in DST agar containing 5% blood. The series is classed as cell-based. The following applies: Escherichia coli.
Description: as §1

The subject of series [9] is Strep. pyogenes CN1O. Description: MIC in DST agar containing 5% blood. The series is classed as cell-based. The following applies: Streptococcus pyogenes.
Description: as §1

Series [10] relates to Staph. aureus Russell. The series is described as follows: MIC in DST agar containing 5% blood. The series is classed as cell-based. The following applies: Staphylococcus aureus.
Description: as §1

In series [11] the test system is E. coli 0111. Description: MIC in DST agar containing 5% blood. The series is classed as cell-based. The following applies: Escherichia coli.
Description: as §1

For series [12], the system named is Staphylococcus aureus Smith. Description: in-vivo anti-bacterial activity in mice with intraperitoneal Staphylococcus aureus Smith infection. The following applies: intraperitoneal S. aureus Smith; for ED50: Staphylococcus aureus, sc, sub-cutaneous dosing 1 and 5 hours post infection. As for the experimental part:
(§2) When tested in mice suffering from an intraperitoneal infection of Staphylococcus aureus Smith, the following results where obtained with sub-cutaneous dosing 1 and 5 hours post infection: […]

A short description of series [13]: overt drug induced toxicity in infected mice at the therapeutic dose. The following applies: sub-cutaneous. The format is in vivo. As for the experimental part:
as §2

Series [14] concerns Klebsiella aerogenes E70. Description: in vitro MIC of ampicillin with and without the compound (synergy). The format is cell-based. The following applies: without the compound of Example 2, read-out: in vitro MIC of ampicillin alone.
The subject of series [15] is E. coli E96 (Rtem). The series is described as follows: in-vivo test in mice infected intraperitoneally with E. coli E96 (Rtem), amoxycillin synergy. The following applies: Escherichia coli, sc, read-out: CD50 of amoxycillin alone.
Setting [16] is: read-out: CD50 (the source's name).

Structures are written as SMILES. Values after ≈ are worked out from the molar mass of the structure shown. Like-named read-outs stand apart in the source and are kept apart here.

On to `O=C(O)[C@H]1/C(=C/CN2CCc3ccccc3C2)O[C@@H]2CC(=O)N21` [Example 2, 9-N-(1,2,3,4-Tetrahydroisoquinolyl)deoxyclavulanic acid], for which the MIC in series [1] was 80 µg/mL (≈ 255 µM); in series [2] it was > 80 µg/mL; in series [3], ≤ 1.25 µg/mL; in series [4], 40 µg/mL (≈ 127 µM); in series [5], 20 µg/mL (≈ 63.6 µM); in series [6], 20 µg/mL (≈ 63.6 µM). Also, the MIC in series [7] was ≤ 1.25 µg/mL; in series [8] it was 10 µg/mL (≈ 31.8 µM); in series [9], ≤ 1.25 µg/mL; in [10], ≤ 1.25 µg/mL; in series [11], 80 µg/mL (≈ 255 µM). For the same molecule, the ED50 in series [12] (setting [16]) was found to be 3.5 mg/kg. Moreover, the anti-bacterial activity in-vivo result in series [12] (result in words) is given as “good anti-bacterial activity in-vivo”. Besides, the “overt drug induced toxicity” value in series [13] is “No overt drug induced toxicity was observed”.

Consider `CC1(C)S[C@@H]2[C@H](NC(=O)[C@H](N)c3ccccc3)C(=O)N2[C@H]1C(=O)O` [ampicillin], for which the MIC in series [14] was 125 µg/mL.

For the molecule `CC1(C)S[C@@H]2[C@H](NC(=O)[C@H](N)c3ccc(O)cc3)C(=O)N2[C@H]1C(=O)O` [amoxycillin], in [15], the ED50 was > 1000 mg/kg.

In the case of `O=C(O)[C@H]1/C(=C/CO)O[C@@H]2CC(=O)N21` [Clavulanic acid sodium, reference compound], the ED50 in series [12] (range of results in various tests, read-out: CD50, range of results in various tests) is 12 to 27 mg/kg; in series [12] (setting [16]), 13 mg/kg.

For orientation: MIC means the lowest concentration that inhibits growth of the organism.
